Source: patent US9060946B2, “Topical skin care formulations” (priority 2013, dated 2015)

Tests used:
skin [1] = details: known sunless tanning ingredients; acts on dead skin cells; cited from earlier work
[2] = background; without the whiteness-preserving ingredients; cited from earlier work
skin [3] = assay: Tanning of the skin after topical application; format: in vivo
From the text: The tan will appear once it reaches the skin's cellular level whether a person is in the light or in total darkness.
The tanning process will continue, in the sun, in the shade, or total darkness, regardless of the environmental conditions. […] Also, the tan can be maintained for longer periods of time by daily use of a maintenance formula containing 3 wt % CoQ10 and 3 wt % vanillin in a lime emulsion.

| SMILES | how long the tan color lasts (skin [1]) | color behaviour in aqueous emulsion products [2] | tanning / color development continues for up to (skin [3]) |
| --- | --- | --- | --- |
| O=C(CO)[C@H](O)CO [erythrulose, D-erythrulose] | only a few days |  |  |
| COC1=C(OC)C(=O)C(C/C=C(\C)CC/C=C(\C)CC/C=C(\C)CC/C=C(\C)CC/C=C(\C)CC/C=C(\C)CC/C=C(\C)CC/C=C(\C)CC/C=C(\C)CCC=C(C)C)=C(C)C1=O [CoQ10, coenzyme Q10] |  | degrades the formulation into various shades of orange or brown |  |
| COc1cc(C=O)ccc1O [vanillin] |  | quickly degrades into various shades of brown | up to 24 hours |
